Source: patent publication US20090047218A1, “Method for producing albumin conjugates comprising an X-ray contrast medium as the active substance” (Albupharm Heidelberg GmbH & Co. KG, priority 2005, published 2009)

Test: Stability of iodine-containing X-ray contrast medium against radiation (iodine-starch reaction)
Assay type: physicochemical
Conditions: about 40 mg in 40 ml 0.1% starch solution
Procedure: Approximately 40 mg 2,3,5-triiodobenzoic acid (TIB) or another X-ray contrast medium that can be obtained commercially (diatrizoic acid or iotalamic acid etc.) is dissolved in 40 ml of a 0.1% starch solution while gently heating. 20 ml is in each case distributed to two Petri dishes (diameter 11.5 cm). Dish 1 is placed in full sunlight for 1 hour. Dish 2 is irradiated at a distance of 11 cm with a UV hand-held lamp (254 nm, 14 μW/cm^2).
This is even more significant because the energy of the UV irradiation (like the intensity of the irradiation source used) is approximately 100-fold lower than that of the X-ray irradiation of a computer tomograph.

## O=C(O)c1cc(I)cc(I)c1I [2,3,5-triiodobenzoic acid]
Dish 1, full sunlight for 1 hour
  colour of the solution (iodine-starch reaction) after exposure to daylight: still colourless
Dish 2, UV hand-held lamp 254 nm, 14 μW/cm^2, distance 11 cm
  colour of the solution (iodine-starch reaction) after UV irradiation: typical, intensive blue staining of the iodine-starch reaction
